Test results reported in PMC2248166, “Quantitative peptide binding motifs for 19 human and mouse MHC class I molecules derived using positional scanning combinatorial peptide libraries” (Immunome Research, 2008).

Tests used:
Assay type in all cases: binding
HLA A*3001 = HLA A*3001 (Homo sapiens, UniProt P04439, D140H/D185E/E176W/F33S/G80R/H175R/K168Q/R138E/R41S); test: biochemical
HLA A*3201 = HLA A*3201 (Homo sapiens, UniProt P04439, A270S/D101S/D185E/E176V/E277Q/F133L/G103R/G107R/G231S/H175R/I121M/I218V/I322F/K168Q/L105A/L300P/L318F/M331R/P208A/P217A/Q94H/R106L/R138Q/S129P/T104I/T323A/T345S/V100E/V321M/V358M); test: biochemical
HLA A*6802 = HLA A*6802 (Homo sapiens, UniProt P04439, A269V/D140Y/D185E/E176V/E277Q/E87N/F33Y/G231S/I121R/I166T/I218V/L180W/L300P/L318F/N151K/P208A/P217A/Q86R/R138H/R169H/S129P/T345S/V36M)
HLA B*0801 = HLA B*0801 (Homo sapiens, UniProt P01889, A93T/A95T/D138N/E176V/E187T/K202T/Q94N/R180D/S35A/V36M/Y33D/Y91F); test: biochemical
HLA B*1501 = HLA B*1501 (Homo sapiens, UniProt P01889, A329T/A93T/A95T/C349S/D201E/D98Y/E187L/E204Q/E69M/E70A/K202T/N87E/Q94N/R155S/R180W/S121R/S35A/S48A/V306I/V36M/Y140S/Y91S); test: biochemical
HLA B*1503 = HLA B*1503 (Homo sapiens, UniProt P01889, A329T/A93T/A95T/C349S/D201E/D98Y/E187L/E204Q/K202T/N87E/Q94N/R155S/R180L/S121R/S35A/V306I/V36M/Y140S/Y91S); test: biochemical
HLA B*3501 = HLA B*3501 (Homo sapiens, UniProt P01889, A329T/A93T/A95T/C349S/D201E/D98Y/E176V/E187L/E204Q/E69T/I218V/K202T/L119I/Q94N/R155S/R180L/S121R/S35A/S48A/T118I/V127L/V306I/V36M/Y140S/Y91F)
HLA B*5101 = HLA B*5101 (Homo sapiens, UniProt P01889, A329T/A93T/A95T/C349S/D138N/D201E/D98Y/E187L/E204Q/E69T/G107R/I218V/K202T/L105A/L119W/N104I/Q94N/R106L/R155S/R180L/S101N/S121T/S35A/S48A/V306I/V36M/Y195H/Y91F)
HLA B*5301 = HLA B*5301 (Homo sapiens, UniProt P01889, A329T/A93T/A95T/C349S/D201E/D98Y/E176V/E187L/E204Q/E69T/G107R/I218V/K202T/L105A/L119I/N104I/Q94N/R106L/R155S/R180L/S101N/S121R/S35A/S48A/T118I/V127L/V306I/V36M/Y140S/Y91F)
HLA B*5401 = HLA B*5401 (Homo sapiens, UniProt P01889, A329T/C349S/D138N/D201E/E176V/E187T/E204Q/E69G/I76V/K202T/L119W/R155S/R180L/S121T/S35A/S48A/V127L/V306I/V36M/Y140L)
HLA B*5801 = HLA B*5801 (Homo sapiens, UniProt P01889, A329T/C349S/D201E/D98Y/E176V/E187L/E204Q/E69T/G107R/I218V/I90N/K202T/L105A/L119I/N104I/N87E/Q89R/Q94S/R106L/R155S/R180L/R86G/S101N/S121R/S35A/S48A/T118I/V127L/V306I/V36M/Y140S/Y91M)
HLA B*5802 = HLA B*5802 (Homo sapiens, UniProt P01889, A329T/C349S/D201E/D98Y/E176V/E187L/E204Q/E69T/G107R/I218V/I90N/K202T/L105A/N104I/N87E/Q89R/Q94S/R106L/R155S/R180L/R86G/S101N/S121W/S35A/S48A/V127L/V306I/V36M/Y140S/Y91M)
H-2 D^b = H-2 D^b (Mus musculus, UniProt P01899)
H-2 D^b, sequence (P01887 21-119): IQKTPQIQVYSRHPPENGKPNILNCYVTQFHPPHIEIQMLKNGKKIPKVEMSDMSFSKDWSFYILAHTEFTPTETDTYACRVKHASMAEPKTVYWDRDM
H-2 D^b, sequence (P01899 25-362): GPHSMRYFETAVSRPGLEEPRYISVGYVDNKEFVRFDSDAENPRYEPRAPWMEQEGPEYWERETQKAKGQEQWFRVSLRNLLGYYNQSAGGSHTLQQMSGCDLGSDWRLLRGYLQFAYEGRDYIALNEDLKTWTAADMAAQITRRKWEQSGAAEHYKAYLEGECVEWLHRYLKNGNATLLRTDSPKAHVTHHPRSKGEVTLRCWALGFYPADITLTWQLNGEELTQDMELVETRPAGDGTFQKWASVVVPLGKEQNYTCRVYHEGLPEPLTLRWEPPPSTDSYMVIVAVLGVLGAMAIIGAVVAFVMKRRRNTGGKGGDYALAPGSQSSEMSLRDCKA

H-2 D^d = H-2 D^d (Mus musculus, UniProt P01900)
H-2 D^d, sequence (P01900 whole entry, looked up): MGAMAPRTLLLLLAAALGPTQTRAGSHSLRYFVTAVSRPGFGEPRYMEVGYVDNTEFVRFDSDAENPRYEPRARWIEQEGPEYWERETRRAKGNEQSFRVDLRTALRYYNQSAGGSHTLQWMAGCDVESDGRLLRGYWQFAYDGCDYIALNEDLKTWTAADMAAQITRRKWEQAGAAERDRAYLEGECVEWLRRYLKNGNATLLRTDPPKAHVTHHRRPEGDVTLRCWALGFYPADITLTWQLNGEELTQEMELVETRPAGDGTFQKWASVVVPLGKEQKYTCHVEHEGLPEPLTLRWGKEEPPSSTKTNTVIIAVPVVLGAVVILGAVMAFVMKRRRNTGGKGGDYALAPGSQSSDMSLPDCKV

H-2 K^d = H-2 K^d (Mus musculus, UniProt P01902)
H-2 K^d, sequence (P01887 21-119): as the sequence (P01887 21-119) above
H-2 K^d, sequence (P01902 22-368): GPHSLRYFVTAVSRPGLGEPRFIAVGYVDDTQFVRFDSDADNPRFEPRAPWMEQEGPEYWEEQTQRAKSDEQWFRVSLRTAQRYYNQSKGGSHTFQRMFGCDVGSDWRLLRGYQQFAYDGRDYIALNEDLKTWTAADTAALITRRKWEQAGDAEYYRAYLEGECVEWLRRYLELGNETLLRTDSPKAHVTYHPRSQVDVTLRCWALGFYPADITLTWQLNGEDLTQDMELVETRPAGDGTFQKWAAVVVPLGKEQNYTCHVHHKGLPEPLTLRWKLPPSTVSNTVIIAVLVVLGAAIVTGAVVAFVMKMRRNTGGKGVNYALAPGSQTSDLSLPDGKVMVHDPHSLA

H-2 K^k = H-2 K^k (Mus musculus, UniProt P04223)
H-2 K^k, sequence (P01887 21-119): as the sequence (P01887 21-119) above
H-2 K^k, sequence (P04223 22-369): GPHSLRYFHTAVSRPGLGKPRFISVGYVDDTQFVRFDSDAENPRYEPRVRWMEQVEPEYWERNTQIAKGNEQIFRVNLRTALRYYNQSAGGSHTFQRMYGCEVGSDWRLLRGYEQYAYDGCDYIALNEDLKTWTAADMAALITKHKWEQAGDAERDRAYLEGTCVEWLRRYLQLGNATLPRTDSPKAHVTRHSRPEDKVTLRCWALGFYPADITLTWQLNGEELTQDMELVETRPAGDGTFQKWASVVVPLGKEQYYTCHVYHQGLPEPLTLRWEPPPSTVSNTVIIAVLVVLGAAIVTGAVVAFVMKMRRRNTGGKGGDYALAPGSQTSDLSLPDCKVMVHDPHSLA

XXXNXXXXX [3064.0072]
Normalized average relative binding affinity(ARB) (HLA A*3001): 0.31
Normalized average relative binding affinity(ARB) (HLA A*3201): 0.59
Normalized average relative binding affinity(ARB) (HLA A*6802): 0.27
Normalized average relative binding affinity(ARB) (HLA B*0801): 0.48
Normalized average relative binding affinity(ARB) (HLA B*1501): 0.46
Normalized average relative binding affinity(ARB) (HLA B*1503): 0.76
Normalized average relative binding affinity(ARB) (HLA B*3501): 0.079
Normalized average relative binding affinity(ARB) (HLA B*5101): 0.42
Normalized average relative binding affinity(ARB) (HLA B*5301): 0.27
Normalized average relative binding affinity(ARB) (HLA B*5401): 0.20
Normalized average relative binding affinity(ARB) (HLA B*5801): 0.46
Normalized average relative binding affinity(ARB) (HLA B*5802): 0.55
Normalized average relative binding affinity(ARB) (H-2 D^b): 0.18
Normalized average relative binding affinity(ARB) (H-2 D^d): 0.40
Normalized average relative binding affinity(ARB) (H-2 K^d): 0.24
Normalized average relative binding affinity(ARB) (H-2 K^k): 0.22

XXXXIXXXX [3064.0088]
Normalized average relative binding affinity(ARB) (HLA A*3001): 0.20
Normalized average relative binding affinity(ARB) (HLA A*3201): 0.59
Normalized average relative binding affinity(ARB) (HLA A*6802): 0.88
Normalized average relative binding affinity(ARB) (HLA B*0801): 0.080
Normalized average relative binding affinity(ARB) (HLA B*1501): 0.32
Normalized average relative binding affinity(ARB) (HLA B*1503): 0.12
Normalized average relative binding affinity(ARB) (HLA B*3501): 0.26
Normalized average relative binding affinity(ARB) (HLA B*5101): 0.33
Normalized average relative binding affinity(ARB) (HLA B*5301): 0.30
Normalized average relative binding affinity(ARB) (HLA B*5401): 0.13
Normalized average relative binding affinity(ARB) (HLA B*5801): 0.34
Normalized average relative binding affinity(ARB) (HLA B*5802): 0.79
Normalized average relative binding affinity(ARB) (H-2 D^b): 0.020
Normalized average relative binding affinity(ARB) (H-2 D^d): 0.28
Normalized average relative binding affinity(ARB) (H-2 K^d): 0.19
Normalized average relative binding affinity(ARB) (H-2 K^k): 0.24

XXXTXXXXX [3064.0077]
Normalized average relative binding affinity(ARB) (HLA A*3001): 0.44
Normalized average relative binding affinity(ARB) (HLA A*3201): 0.31
Normalized average relative binding affinity(ARB) (HLA A*6802): 0.20
Normalized average relative binding affinity(ARB) (HLA B*0801): 0.52
Normalized average relative binding affinity(ARB) (HLA B*1501): 0.39
Normalized average relative binding affinity(ARB) (HLA B*1503): 0.41
Normalized average relative binding affinity(ARB) (HLA B*3501): 0.54
Normalized average relative binding affinity(ARB) (HLA B*5101): 0.77
Normalized average relative binding affinity(ARB) (HLA B*5301): 0.25
Normalized average relative binding affinity(ARB) (HLA B*5401): 0.61
Normalized average relative binding affinity(ARB) (HLA B*5801): 0.27
Normalized average relative binding affinity(ARB) (HLA B*5802): 0.74
Normalized average relative binding affinity(ARB) (H-2 D^b): 0.58
Normalized average relative binding affinity(ARB) (H-2 D^d): 0.66
Normalized average relative binding affinity(ARB) (H-2 K^d): 0.21
Normalized average relative binding affinity(ARB) (H-2 K^k): 0.19

XXXXXXQXX [3064.0134]
Normalized average relative binding affinity(ARB) (HLA A*3001): 0.29
Normalized average relative binding affinity(ARB) (HLA A*3201): 0.33
Normalized average relative binding affinity(ARB) (HLA A*6802): 0.45
Normalized average relative binding affinity(ARB) (HLA B*0801): 0.79
Normalized average relative binding affinity(ARB) (HLA B*1501): 0.51
Normalized average relative binding affinity(ARB) (HLA B*1503): 0.95
Normalized average relative binding affinity(ARB) (HLA B*3501): 0.36
Normalized average relative binding affinity(ARB) (HLA B*5101): 0.50
Normalized average relative binding affinity(ARB) (HLA B*5301): 1.0
Normalized average relative binding affinity(ARB) (HLA B*5401): 1.0
Normalized average relative binding affinity(ARB) (HLA B*5801): 0.23
Normalized average relative binding affinity(ARB) (HLA B*5802): 0.22
Normalized average relative binding affinity(ARB) (H-2 D^b): 0.84
Normalized average relative binding affinity(ARB) (H-2 D^d): 0.057
Normalized average relative binding affinity(ARB) (H-2 K^d): 0.25
Normalized average relative binding affinity(ARB) (H-2 K^k): 0.016

XXXXXXXKX [3064.0149]
Normalized average relative binding affinity(ARB) (HLA A*3001): 0.12
Normalized average relative binding affinity(ARB) (HLA A*3201): 0.24
Normalized average relative binding affinity(ARB) (HLA A*6802): 0.12
Normalized average relative binding affinity(ARB) (HLA B*0801): 0.14
Normalized average relative binding affinity(ARB) (HLA B*1501): 0.24
Normalized average relative binding affinity(ARB) (HLA B*1503): 0.085
Normalized average relative binding affinity(ARB) (HLA B*3501): 0.36
Normalized average relative binding affinity(ARB) (HLA B*5101): 0.20
Normalized average relative binding affinity(ARB) (HLA B*5301): 0.78
Normalized average relative binding affinity(ARB) (HLA B*5401): 0.099
Normalized average relative binding affinity(ARB) (HLA B*5801): 0.14
Normalized average relative binding affinity(ARB) (HLA B*5802): 0.15
Normalized average relative binding affinity(ARB) (H-2 D^b): 0.076
Normalized average relative binding affinity(ARB) (H-2 D^d): 0.24
Normalized average relative binding affinity(ARB) (H-2 K^d): 0.23
Normalized average relative binding affinity(ARB) (H-2 K^k): 0.13
